Key:
[1] = system: male Wistar rats; experiment: Renal ischemia-reperfusion (I/R) in anesthetized rats with BMOV infusion; format: in vivo, rat
Protocol: Thirty two male Wistar rats (Harlan Netherlands BV, Horst, The Netherlands) with a mean body weight of 280±30 grams were used in this study. The animals were quarantined prior to start of the investigation for 1 week to permit acclimatization to their new environment and were housed in pairs in conventional cages in a light-controlled room kept at 22±1° C. with a relative humidity of 55±10%. All animals received standard laboratory rat chow and water for consumption ad libitum.
All animals were initially anesthetized with a mixture of ketamine (Nimatek, Eurovet Animal Health BV, Bladel, The Netherlands; 90 mg/kg), dexmedetomidine (Dexdomitor, Pfizer Animal Health BV, Capelle aan den IJssel, The Netherlands; 0.5 mg/kg), and atropine sulfate (Centrafarm BV, Etten-Leur, The Netherlands; 0.05 mg/kg) by intraperitoneal injection. Once anesthetized, the area between the thoracic manubrium and chin and the left flank covering the left kidney were shaved and cleaned prior to initiating the surgical procedure. During the remainder of the surgical preparation and experimental procedures, anesthesia was maintained via tracheotomy and mechanical ventilation with an inspired oxygen fraction (FiO2) of 0.4. Body temperature was maintained at 37±0.5° C. during the entire experiment. The ventilator settings were adjusted to maintain an arterial pCO2 between 35 and 40 MmHg.
For drug and fluid administration and hemodynamic monitoring, three vessels were cannulated with polyethylene catheters (outer diameter=0.9 mm; Braun, Melsungen, Germany). A catheter in the right carotid artery was connected to a pressure transducer to monitor arterial blood pressure and heart rate. The right jugular vein was cannulated for continuous infusion of Ringer's lactate (Baxter, Utrecht, The Netherlands) at a rate of 15 ml/kg/hr. The femoral artery was cannulated for withdrawing blood samples for blood gas analysis. Animals were kept under general anesthesia during all experiments and received continuous intravenous diluted ketamine or analgesic drug infusions. The left kidney was exposed, decapsulated, and immobilized in a Lucite (i.e. poly (methyl methacrylate); PMMA) custom made kidney cup via a ˜4 cm incision on the left flank. The renal artery and vein were carefully separated to preserve the surrounding nerves and adrenal gland. A perivascular ultrasonic transient time flow probe (type 0.7 RB; Transonic Systems, Ithaca, N.Y., USA) was placed around the left renal artery and connected to a flow meter (T206; Transonic Systems, Ithaca, N.Y., USA) to allow continuous measurement of renal blood flow (RBF). The left ureter was isolated, ligated, and cannulated with a polyethylene catheter (outer diameter=0.9 mm; Braun, Melsungen, Germany) for urine collection. A small piece of aluminum foil (10×10 mm) was placed on the dorsal site of the renal vein to prevent contribution of juxtaposed and underlying tissues from interfering with the phosphorescence signal in the venous pO2 measurement. After the surgical protocol (˜60 min), one optical fiber was placed 1 mm above the decapsulated kidney and another optical fiber 1 mm above the renal vein to measure oxygenation using a phosphorescence lifetime technique (20). Oxyphor G2 (Oxygen Enterprises, Philadelphia, Pa., USA; 6 mg/kg) was subsequently infused intravenously for 5 min, followed by 30 min of stabilization time.
The operation field was covered with a humidified gauze compress throughout the entire experiment to prevent drying of the exposed tissues in the surgical field. The phosphorescence lifetime measurements have been described in more details elsewhere (20). The experiment was terminated by infusion of 1 ml of 3 M potassium chloride. Finally, the kidney was removed, weighed, and processed for histological evaluation. The correct placements of the catheters were also checked postmortem. […]

[2] = system: critically ill patients; details: intensive insulin therapy, cited from earlier work
[3] = BMOV 7 and 15 mg/kg infusion, 30 min ischemia, 90 min reperfusion, effect not dose-dependent
[4] = high dose BMOV (15 mg/kg) compared to low dose (7 mg/kg)
[5] = kidney immunohistochemistry after 30 min ischemia, 90 min reperfusion, vs I/R control, dose-dependent

| Compound | mean arterial pressure [1, 3] | microvascular oxygenation in the renal cortex [1, 3] | microvascular oxygenation in the renal medulla [1, 3] | renal blood flow [1, 3] | renal oxygen delivery [1, 3] | renal oxygen utilization efficiency (VO2/Tna+) [1, 3] | renal hemodynamics ([1]; FIG. 2, 30 min ischemia, 90 min reperfusion) | NGAL levels [1, 4] | iNOS expression [1, 4] | inflammatory activation (IL-6, iNOS expression, MPO-stained leukocytes) [1, 5] | renal injury (biomarkers NGAL, L-FABP) [1, 5] | overall ICU mortality ([2]; reduced from 8%) [%] | ICU mortality among patients requiring more than five days intensive care ([2]; reduced from 20.2%) [%] |
| --- | --- | --- | --- | --- | --- | --- | --- | --- | --- | --- | --- | --- | --- |
| Cc1occc(=O)c1[O-].Cc1occc(=O)c1[O-].[O]=[V+2] [BMOV, bis(maltolato)oxovanadium(IV)] | did not affect | significantly increased | significantly increased | did not affect | did not affect | increased | did not affect | significantly lower | significantly lower | significantly decreased | significantly decreased |  |  |
| insulin: intensive insulin therapy in critically ill ICU patients, literature |  |  |  |  |  |  |  |  |  |  |  | 4.6 | 10.6 |

From US11179401B2, “Use of vanadium compounds for maintaining normaglycemia in a mammal” (CFM Pharma Holding BV, priority 2011, dated 2021)
